Source: patent US9611289B2, “Farnesoid X receptor modulators” (Intercept Pharmaceuticals, Inc., priority 2013, dated 2017)
≈ marks a conversion by molar mass, not a printed value.

Columns and labels:
[1] = biological target: LXRβ (Homo sapiens, UniProt P55055); assay: AlphaScreen nuclear receptor activation; assay type: biochemical
[2] = biological target: T1, PXR (Homo sapiens, UniProt O75469); assay: AlphaScreen nuclear receptor activation; assay type: biochemical
T1 sequence (O75469 1-434): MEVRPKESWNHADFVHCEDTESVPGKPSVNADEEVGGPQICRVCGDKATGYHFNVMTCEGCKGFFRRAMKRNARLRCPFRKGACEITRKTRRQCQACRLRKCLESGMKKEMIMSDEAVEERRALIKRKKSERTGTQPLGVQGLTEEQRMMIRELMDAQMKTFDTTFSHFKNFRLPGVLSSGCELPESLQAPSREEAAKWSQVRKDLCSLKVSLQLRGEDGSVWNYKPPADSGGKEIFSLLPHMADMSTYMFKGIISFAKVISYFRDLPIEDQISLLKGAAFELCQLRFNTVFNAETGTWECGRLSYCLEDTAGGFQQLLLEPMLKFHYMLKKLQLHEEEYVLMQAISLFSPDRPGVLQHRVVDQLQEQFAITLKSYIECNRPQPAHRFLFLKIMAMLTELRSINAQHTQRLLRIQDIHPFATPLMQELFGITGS

[3] = biological target: CAR (Homo sapiens, UniProt Q14994); assay: AlphaScreen nuclear receptor activation; assay type: biochemical
[4] = biological target: PPARα (Homo sapiens, UniProt Q07869); assay: AlphaScreen nuclear receptor activation; assay type: biochemical
[5] = biological target: PPARδ (Homo sapiens, UniProt Q03181); assay: AlphaScreen nuclear receptor activation; assay type: biochemical
[6] = biological target: PPARγ (Homo sapiens, UniProt P37231); assay: AlphaScreen nuclear receptor activation; assay type: biochemical
[7] = biological target: RARα (Homo sapiens, UniProt P10276); assay: AlphaScreen nuclear receptor activation; assay type: biochemical
[8] = biological target: VDR (Homo sapiens, UniProt P11473); assay: AlphaScreen nuclear receptor activation; assay type: biochemical
[9] = test system: TR; assay: AlphaScreen nuclear receptor activation; assay type: biochemical
[10] = biological target: PR (Homo sapiens, UniProt P06401); assay: AlphaScreen nuclear receptor activation; assay type: biochemical
[11] = test system: RXR; assay: AlphaScreen nuclear receptor activation; assay type: biochemical
[12] = biological target: GR (Homo sapiens, UniProt P04150); assay: AlphaScreen nuclear receptor activation; assay type: biochemical
[13] = test system: FXR target genes; assay: Quantitative RT-PCR of FXR target genes in HepG2 cells; assay type: cell-based, human; conditions: 1 μM, overnight
[14] = Critical micellar concentration; assay type: physicochemical; conditions: […] NaCl water solution
[15] = Surface tension at CMC; assay type: physicochemical; conditions: […] NaCl water solution
[16] = test system: ER
[17] = test system: HepG2 cells; assay: cells; conditions: Homo sapiens, HepG2, read-out: Membrane integrity EC50 (μM) (LDH measure)
[18] = physchem; conditions: water
[19] = biological target: T2, CYP1A2 (Homo sapiens, UniProt P05177); assay: biochemical
T2 sequence (P05177 1-516): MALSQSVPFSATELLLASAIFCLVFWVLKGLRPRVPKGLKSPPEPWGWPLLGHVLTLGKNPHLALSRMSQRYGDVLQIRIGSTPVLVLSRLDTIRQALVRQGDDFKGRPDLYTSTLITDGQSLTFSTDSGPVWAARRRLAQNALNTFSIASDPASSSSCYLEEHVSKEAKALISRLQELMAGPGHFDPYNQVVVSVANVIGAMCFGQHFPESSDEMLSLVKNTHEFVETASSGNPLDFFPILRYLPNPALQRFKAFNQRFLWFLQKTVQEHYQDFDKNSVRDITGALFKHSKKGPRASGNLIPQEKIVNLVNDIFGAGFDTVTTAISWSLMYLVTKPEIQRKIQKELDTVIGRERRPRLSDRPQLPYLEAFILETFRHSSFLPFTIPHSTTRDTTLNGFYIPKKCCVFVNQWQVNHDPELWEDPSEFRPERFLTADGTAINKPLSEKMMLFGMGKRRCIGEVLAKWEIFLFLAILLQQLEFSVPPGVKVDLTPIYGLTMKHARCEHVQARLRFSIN

[20] = biological target: T3, CYP3A4 (Homo sapiens, UniProt P08684); assay: biochemical
[21] = biological target: CYP2C9 (Homo sapiens, UniProt P11712); assay: biochemical
[22] = biological target: CYP2C19 (Homo sapiens, UniProt P33261); assay: biochemical
[23] = biological target: CYP2D6 (Homo sapiens, UniProt P10635); assay: biochemical
[24] = biological target: CYP2E1 (Homo sapiens, UniProt P05181); assay: biochemical
[25] = biological target: hERG potassium channel (Homo sapiens, UniProt Q12809); assay: PREDICTOR hERG Fluorescence Polarization assay; conditions: CHO-hERG membrane preparations
[26] = 1-octanol-water partition coefficient (LogPA-); conditions: ionized species
[27] = biological target: T3, CYP3A4; assay: CYP450 inhibition, recombinant baculosomes, fluorescent signal; conditions: read-out: CYP3A4 (Green Substrate) IC50

In the case of `CC[C@H]1[C@@H](O)[C@@H]2[C@H](CC[C@]3(C)[C@@H]([C@H](C)CCC(=O)O)CC[C@@H]23)[C@@]2(C)CC[C@@H](O)C[C@@H]12` [Compound A, 6α-ethyl-3α,7α-dihydroxy-5β-cholan-24-oic acid], the “LXRβ Activation EC50 (μM)” value [1] is reported as “No activity”, the “PXR Activation EC50 (μM)” value [2] is reported as “No activity” and the “CAR Activation EC50 (μM)” value [3] is reported as “No activity”. The “PPARα Activation EC50 (μM)” value [4] was “No activity”, the “PPARδ Activation EC50 (μM)” value [5] was “No activity” and the “PPARγ Activation EC50 (μM)” value [6] was “No activity”. For the same compound, the “RARα Activation EC50 (μM)” value [7] was “No activity”, the “VDR Activation EC50 (μM)” value [8] was “No activity” and the “TR Activation EC50 (μM)” value [9] was “No activity”. For the same compound, the “PR Activation EC50 (μM)” value [10] was “No activity”, the “RXR Activation EC50 (μM)” value [11] was “No activity” and the “GR Activation EC50 (μM)” value [12] was “No activity”. For the same compound, the APOCII gene expression [13] was “up”, the BSEP gene expression [13] was “up” and the CYP7α1 gene expression [13] was “down”. For the same compound, the FGF-19 gene expression [13] was “up”, the MRP2 gene expression [13] was “up” and the OSTα gene expression [13] was “up”. The OSTβ gene expression [13] was “up”, the PEPCK gene expression [13] was “up” and the PLTP gene expression [13] was “up”. The PPARγ gene expression [13] was “up”, the SHP gene expression [13] was “up” and the SREBP-1C gene expression [13] was “down”. For the same compound, the UGT2B4 gene expression [13] was “up”, the “CMC(b) (mM) Critical Micellar Concentration” value [14] was 2.9 mM and the “STCMC(c) (Dyne/cm) Surface Tension at CMC” value [15] was 43.2-48.8 Dyne/cm. The “ER Activation EC50 (μM)” value [16] was “No activity”, the EC50 [17] was 190 ± 30 µM and the solubility [18] was 9 µM (≈ 3.79 µg/mL). The IC50 [19] was over 10 µM, the IC50 [20] was over 10 µM and the IC50 [21] was over 10 µM. For the same compound, the IC50 [22] was over 10 µM, the IC50 [23] was over 10 µM and the IC50 [24] was over 10 µM. For the same compound, the “block or inhibition of the hERG potassium channel” value [25] was “does not block or inhibit”, the “LogPA−(d) 1-octanol-water partition coefficient” value [26] was 2.5 and the IC50 [27] was over 10 µM.
